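Tested at 5 concentrations; 48 h exposure; 96-well plates; endpoints linearly interpolated, else capped at highest concentration. At the GI50, growth is halved.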 Calls of active or inactive are those of the source. No stated cut-off is given here; in the data, active = GI50 up to about 1.1 µM and inactive = higher.

Holding throughout (test): DTP human tumour cell line panel, 48 h
For test [1], the system named is T47D.
The test system of test [2] is SNB-19.
For test [3], the system named is MDA-MB-435.
Test [4] has as its system OVCAR-8.
Test [5] deals with A498.
Test [6] concerns OVCAR-5.
Test [7] relates to HOP-92.
Test [8] concerns MOLT-4.
The test system of test [9] is OVCAR-4.
For test [10], the system named is SNB-75.
Test [11] concerns PC-3.
Test [12] concerns NCI-H460.
Test [13] relates to HCT-116.
The subject of test [14] is Hs-578T.
The subject of test [15] is MDA-MB-231.
In test [16] the test system is HCT-15.
In test [17] the test system is SK-MEL-28.
The test system of test [18] is CCRF-CEM.
For test [19], the system named is HCC 2998.

Regarding `C=C(NC(=O)C(=C)NC(=O)c1csc(C2=NC3c4csc(n4)C4NC(=O)c5csc(n5)C(C(C)(O)C(C)O)NC(=O)C5CSC(=N5)/C(=C/C)NC(=O)C(C(C)O)NC(=O)c5csc(n5)C3(CC2)NC(=O)C(C)NC(=O)C(=C)NC(=O)C(=C)NC(=O)C(C(C)C)NC2C=Cc3c(C(C)O)cc(nc3C2O)C(=O)OC4C)n1)C(N)=O` (stereo not given), the GI50 in [1] was 2.4 µM (inactive); in test [2] it was 33 µM (inactive); in test [3], 0.743 µM (active); in [4], 0.935 µM (active); in test [5], 2.29 µM (inactive); in test [6] it was 4.09 µM (inactive). Further, the GI50 was 4.67 µM (inactive) in test [7]; 0.364 µM (active) in test [8]; > 52.4 µM (inactive) in test [9]; > 30.2 µM (inactive) in [10]; 6.89 µM (inactive) in test [11]; 4.7 µM (inactive) in test [12]. Besides, the GI50 in test [13] was 0.312 µM (active); in [14], 12.3 µM (inactive); in [15], 0.815 µM (active); in test [16], 9.25 µM; in [17], 1.38 µM (inactive); in [18] it was 0.25 µM (active). The GI50 in test [19] was 16.1 µM (inactive).

Regarding `c1ccc(-c2nnc(-c3ccccn3)c3c2C[C@@H]2C[C@@H]4Cc5c(-c6ccccn6)nnc(-c6ccccn6)c5[C@@H]4[C@H]32)nc1`, the GI50 in test [1] was 38.6 µM (inactive); in [2] it was 80.7 µM (inactive); in test [3] it was 50.6 µM (inactive); in test [4], 36.8 µM (inactive); in test [5], 2.39 µM (inactive); in test [6], 61 µM (inactive). Also, the GI50 is 60.4 µM (inactive) in [7]; 33.2 µM (inactive) in test [8]; 38.5 µM (inactive) in [9]; 76.6 µM (inactive) in test [10]; 41.5 µM (inactive) in test [11]; 27.5 µM (inactive) in test [12]. For the same compound, the GI50 in [13] is 39.8 µM (inactive); in [14], 70.3 µM (inactive); in [15], > 100 µM (inactive); in [16], 38.8 µM; in test [17], 34.8 µM (inactive); in test [18] it was 30.3 µM (inactive). In addition, the GI50 in test [19] was 39.9 µM (inactive).

Take `NC1(c2cc3ccccc3s2)CCCC1`: the GI50 in test [1] is 36.3 µM (inactive); in test [2], > 100 µM (inactive); in [3], 41 µM (inactive); in test [4] it was > 100 µM (inactive); in test [5] it was > 100 µM (inactive); in [6], > 100 µM (inactive). Further, the GI50 was 51.6 µM (inactive) in test [7]; 18.4 µM (inactive) in [8]; 42.6 µM (inactive) in test [9]; 67.9 µM (inactive) in [10]; 32 µM (inactive) in test [11]; 33.6 µM (inactive) in [12]. In addition, the GI50 is 33.8 µM (inactive) in [13]; > 100 µM (inactive) in [14]; 83.8 µM (inactive) in test [15]; 65.2 µM in test [16]; 23.7 µM (inactive) in test [17]; 16.9 µM (inactive) in [18]. For the same compound, in test [19], the GI50 is 21.2 µM (inactive).

In the case of `CCCCCCCCCCCCCCCCCCNc1ccn(C2OC(COP(=O)(O)OCC3OC(n4cc(C)c(=O)[nH]c4=O)CC3O)C(O)C2O)c(=O)n1` (stereo not given), the GI50 is 17.3 µM (inactive) in [1]; 15.4 µM (inactive) in test [2]; 16.9 µM (inactive) in test [3]; 17.8 µM (inactive) in [4]; 24.8 µM (inactive) in test [5]; 14.8 µM (inactive) in test [6]. Also, the GI50 in [7] is 29.9 µM (inactive); in test [8], 10.6 µM (inactive); in [9], 15.1 µM (inactive); in [10], 17.5 µM (inactive); in [11], 3.1 µM (inactive); in [12] it was 17.9 µM (inactive). The GI50 in [13] is 17.1 µM (inactive); in [14], 19.4 µM (inactive); in test [15], 14.6 µM (inactive); in test [16], 16.1 µM; in test [17], 17.5 µM (inactive); in [18] it was 10.4 µM (inactive). In test [19], the GI50 was 16.7 µM (inactive).

On to `Nc1nc(Cl)c2ncn(Cc3ccc(CCl)cc3)c2n1`, for which the GI50 in test [1] was 6.98 µM (inactive); in test [2], 6.78 µM (inactive); in test [3], 16.6 µM (inactive); in [4], 5.13 µM (inactive); in [5] it was 22 µM (inactive); in test [6], 3.29 µM (inactive). Further, the GI50 in test [7] was 1.64 µM (inactive); in [8] it was 2.96 µM (inactive); in [9] it was 15.6 µM (inactive); in test [10] it was 23.1 µM (inactive); in test [11] it was 7.45 µM (inactive); in test [12] it was 4.25 µM (inactive). In addition, the GI50 in test [13] was 2.76 µM (inactive); in test [14], 29.2 µM (inactive); in test [15], 13.1 µM (inactive); in [16], 4.95 µM; in test [17] it was 18 µM (inactive); in test [18], 2.68 µM (inactive). Also, the GI50 in test [19] is 0.497 µM (active).

For the compound `CC1=C(C(=O)NNC(=O)C(N)=O)CC(C(=O)NNC(=O)C(N)=O)=C(C)N1`, the GI50 in [1], in test [2], in test [3], in test [4], in [5] and in test [6] was > 100 µM (inactive) each time. Moreover, the GI50 in test [7], in test [8], in test [9], in test [10], in test [11] and in test [12] was > 100 µM (inactive) each time. Besides, the GI50 in test [13] was > 100 µM (inactive); in test [14] it was > 100 µM (inactive); in [15], > 100 µM (inactive); in [16], over 100 µM; in test [17] it was > 100 µM (inactive); in [18] it was > 100 µM (inactive). In test [19], the GI50 was > 100 µM (inactive).

As for `Nc1cc(Cl)cc2cc(Cl)cnc12`, the GI50 is 26.4 µM (inactive) in test [1]; > 100 µM (inactive) in [2]; > 100 µM (inactive) in test [3]; > 100 µM (inactive) in [4]; 49 µM (inactive) in [5]; > 100 µM (inactive) in test [6]. In addition, the GI50 in test [7] is 31.8 µM (inactive); in test [8], 44.5 µM (inactive); in test [9], > 100 µM (inactive); in test [10], 40.3 µM (inactive); in test [11] it was 72.3 µM (inactive); in test [12], > 100 µM (inactive). For the same compound, the GI50 was > 100 µM (inactive) in test [13]; 89.7 µM (inactive) in test [14]; > 100 µM (inactive) in test [15]; over 100 µM in test [16]; > 100 µM (inactive) in [17]; 14 µM (inactive) in test [18]. Besides, the GI50 in [19] was > 100 µM (inactive).

Regarding `NC(=O)N/N=C1\CC2C3CC4C2C4C13` (stereo not given), the GI50 in test [1], in [2], in test [3], in test [4], in [5] and in test [6] was > 100 µM (inactive) throughout. Also, the GI50 in test [7] was > 100 µM (inactive); in test [8] it was > 100 µM (inactive); in test [9], 91 µM (inactive); in test [10], > 100 µM (inactive); in [11], > 100 µM (inactive); in [12] it was > 100 µM (inactive). The GI50 in [13] is > 100 µM (inactive); in test [14], > 100 µM (inactive); in test [15], > 100 µM (inactive); in test [16], over 100 µM; in [17] it was > 100 µM (inactive); in test [18], > 100 µM (inactive). Further, in test [19], the GI50 was > 100 µM (inactive).

For `Cc1ccc2c(c1C)CC1(Cc3c(ccc4c3CCC4)C1=O)C2=O` (stereo not given), the GI50 in test [1] was > 100 µM (inactive); in test [2], > 100 µM (inactive); in [3], 46.3 µM (inactive); in test [4], > 100 µM (inactive); in test [5] it was > 100 µM (inactive); in test [6] it was > 100 µM (inactive). Moreover, the GI50 in test [7] was > 100 µM (inactive); in [8], > 100 µM (inactive); in test [9] it was > 100 µM (inactive); in test [10], 51.6 µM (inactive); in test [11], 62.2 µM (inactive); in test [12] it was > 100 µM (inactive). Also, the GI50 in test [13] is > 100 µM (inactive); in test [14] it was > 100 µM (inactive); in test [15], > 100 µM (inactive); in test [16] it was over 100 µM; in [17], > 100 µM (inactive); in test [18] it was > 100 µM (inactive). For the same compound, in test [19], the GI50 was > 100 µM (inactive).

As for `COC(=O)c1ccc(C)cc1C1CN=NC12Cc1c(C)cccc1C2=O` (stereo not given), the GI50 in test [1] was 23.7 µM (inactive); in test [2], 73.1 µM (inactive); in [3], 41 µM (inactive); in test [4] it was 60.1 µM (inactive); in [5], 52.5 µM (inactive); in test [6], 73.5 µM (inactive). The GI50 in test [7] was 38.6 µM (inactive); in test [8] it was 41.7 µM (inactive); in test [9] it was 44.1 µM (inactive); in test [10], 32 µM (inactive); in test [11] it was 40.2 µM (inactive); in [12] it was 64.7 µM (inactive). In addition, the GI50 in test [13] was 25.6 µM (inactive); in [14], 37.6 µM (inactive); in test [15], 38.5 µM (inactive); in test [16], 28.6 µM; in test [17] it was 80.4 µM (inactive); in [18], 53.5 µM (inactive). Also, in test [19], the GI50 is > 100 µM (inactive).

The term GI50 denotes the concentration that inhibits growth by half.

For the origin of these results see ChEMBL document CHEMBL1201862, “PubChem BioAssay data set” (2004).
